Columns and labels:
Assay in all cases: cells
[1] = tested on: HCC2218; format: functional, cell-based, Homo sapiens; conditions: Homo sapiens, HCC2218;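 further: cell viability assay read-out, with IC50 given as the concentration that inhibits growth of the cell line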
Description: SANGER: Inhibition of human HCC2218 cell growth in a cell viability assay.

[2] = tested on: GB-1; format: functional, cell-based, Homo sapiens; conditions: Homo sapiens, GB-1;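 further: growth of GB-1 cells judged by a viability assay, IC50 marks the concentration inhibiting growth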
Description: SANGER: Inhibition of human GB-1 cell growth in a cell viability assay.

[3] = tested on: GR-ST; format: functional, cell-based, Homo sapiens; conditions: Homo sapiens, GR-ST
Description: SANGER: Inhibition of human GR-ST cell growth in a cell viability assay.

[4] = tested on: MEG-01; format: functional, cell-based, Homo sapiens; conditions: Homo sapiens, MEG-01;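 further: growth inhibition of MEG-01 cells, read out by a cell viability assay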
Description: SANGER: Inhibition of human MEG-01 cell growth in a cell viability assay.

[5] = tested on: KARPAS-45; format: functional, cell-based, Homo sapiens; conditions: Homo sapiens, KARPAS-45;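 further: inhibition of cell line growth, read out through a viability assay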
Description: SANGER: Inhibition of human KARPAS-45 cell growth in a cell viability assay.

[6] = tested on: NOMO-1; format: functional, cell-based, Homo sapiens; conditions: Homo sapiens, NOMO-1;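 further: growth inhibition of human NOMO-1 cells measured by a cell viability assay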
Description: SANGER: Inhibition of human NOMO-1 cell growth in a cell viability assay.

[7] = tested on: SH-4; format: functional, cell-based, Homo sapiens; conditions: Homo sapiens, SH-4;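 further: growth inhibition of SH-4 cells, read out with a cell viability assay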
Description: SANGER: Inhibition of human SH-4 cell growth in a cell viability assay.

[8] = tested on: NCI-H526; format: functional, cell-based, Homo sapiens; conditions: Homo sapiens, NCI-H526;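 further: growth inhibition of the human NCI-H526 cell line, measured by a cell viability assay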
Description: SANGER: Inhibition of human NCI-H526 cell growth in a cell viability assay.

[9] = tested on: MC116; format: functional, cell-based, Homo sapiens; conditions: Homo sapiens, MC116;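 further: growth inhibition of MC116 cells, read out with a cell viability assay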
Description: SANGER: Inhibition of human MC116 cell growth in a cell viability assay.

[10] = tested on: SK-UT-1; format: functional, cell-based, Homo sapiens; conditions: Homo sapiens, SK-UT-1;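 further: growth inhibition of SK-UT-1 cells, measured by a cell viability assay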
Description: SANGER: Inhibition of human SK-UT-1 cell growth in a cell viability assay.

[11] = tested on: CCRF-CEM; format: functional, cell-based, Homo sapiens; conditions: Homo sapiens, CCRF-CEM;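 further: inhibition of CCRF-CEM cell growth, measured by a cell viability assay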
Description: SANGER: Inhibition of human CCRF-CEM cell growth in a cell viability assay.

[12] = tested on: HEL; format: functional, cell-based, Homo sapiens; conditions: Homo sapiens, HEL;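 further: growth inhibition of HEL cells, read out with a cell viability assay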
Description: SANGER: Inhibition of human HEL cell growth in a cell viability assay.

[13] = tested on: EW-11; format: functional, cell-based, Homo sapiens; conditions: Homo sapiens, EW-11;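 further: growth inhibition of human EW-11 cells, measured with a cell viability assay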
Description: SANGER: Inhibition of human EW-11 cell growth in a cell viability assay.

[14] = tested on: BE-13; format: functional, cell-based, Homo sapiens; conditions: Homo sapiens, BE-13;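 further: growth inhibition of human BE-13 cells, measured with a cell viability assay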
Description: SANGER: Inhibition of human BE-13 cell growth in a cell viability assay.

[15] = tested on: D283 Med; format: functional, cell-based, Homo sapiens; conditions: Homo sapiens, D283 Med
Description: SANGER: Inhibition of human D-283MED cell growth in a cell viability assay.

[16] = tested on: EW-3; format: functional, cell-based, Homo sapiens; conditions: Homo sapiens, EW-3;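 further: cell viability assay read-out, IC50 reflects inhibition of growth of the EW-3 cells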
Description: SANGER: Inhibition of human EW-3 cell growth in a cell viability assay.

[17] = tested on: U-266; format: functional, cell-based, Homo sapiens; conditions: Homo sapiens, U-266
Description: SANGER: Inhibition of human U-266 cell growth in a cell viability assay.

[18] = tested on: A498; format: functional, cell-based, Homo sapiens; conditions: Homo sapiens, A498;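 further: growth inhibition of human A498 cells, read out with a cell viability assay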
Description: SANGER: Inhibition of human A498 cell growth in a cell viability assay.

[19] = tested on: KNS-81-FD; format: functional, cell-based, Homo sapiens; conditions: Homo sapiens, KNS-81-FD;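 further: growth inhibition of KNS-81-FD cells, read out with a cell viability assay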
Description: SANGER: Inhibition of human KNS-81-FD cell growth in a cell viability assay.

[20] = tested on: NCI-H747; format: functional, cell-based, Homo sapiens; conditions: Homo sapiens, NCI-H747;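 further: growth inhibition of human NCI-H747 cells, read out by a cell viability assay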
Description: SANGER: Inhibition of human NCI-H747 cell growth in a cell viability assay.

[21] = tested on: NCI-H23; format: functional, cell-based, Homo sapiens; conditions: Homo sapiens, NCI-H23;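 further: cell viability assay measuring growth inhibition of NCI-H23 cells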
Description: SANGER: Inhibition of human NCI-H23 cell growth in a cell viability assay.

[22] = tested on: IST-MEL1; format: functional, cell-based, Homo sapiens; conditions: Homo sapiens, IST-MEL1;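 further: growth inhibition of the cell line, read out with a cell viability assay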
Description: SANGER: Inhibition of human IST-MEL1 cell growth in a cell viability assay.

[23] = tested on: RH-1; format: functional, cell-based, Homo sapiens; conditions: Homo sapiens, RH-1;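 further: growth inhibition of human RH-1 cells, read out with a cell viability assay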
Description: SANGER: Inhibition of human RH-1 cell growth in a cell viability assay.

[24] = tested on: DSH1; format: functional, cell-based, Homo sapiens; conditions: Homo sapiens, DSH1;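 further: growth inhibition of human DSH1 cells, measured with a cell viability readout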
Description: SANGER: Inhibition of human DSH1 cell growth in a cell viability assay.

[25] = tested on: LNCaP-Clone-FGC; format: functional, cell-based, Homo sapiens; conditions: Homo sapiens, LNCaP-Clone-FGC
Description: SANGER: Inhibition of human LNCaP-Clone-FGC cell growth in a cell viability assay.

[26] = tested on: U-87 MG; format: functional, cell-based, Homo sapiens, U-87MG ATCC; conditions: Homo sapiens, U-87 MG;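 further: growth inhibition of the cells measured with a viability assay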
Description: SANGER: Inhibition of human U-87-MG cell growth in a cell viability assay.

[27] = tested on: TE-1; format: functional, cell-based, Homo sapiens; conditions: Homo sapiens, TE-1;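 further: growth inhibition of the human TE-1 cell line, read out with a cell viability assay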
Description: SANGER: Inhibition of human TE-1 cell growth in a cell viability assay.

[28] = tested on: SHP77; format: functional, cell-based, Homo sapiens, SHP-77; conditions: Homo sapiens, SHP77;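 further: growth inhibition of human SHP-77 cells measured by a cell viability assay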
Description: SANGER: Inhibition of human SHP-77 cell growth in a cell viability assay.

[29] = tested on: KM12; format: functional, cell-based, Homo sapiens; conditions: Homo sapiens, KM12;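 further: KM12 cell growth inhibition, read out with a cell viability assay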
Description: SANGER: Inhibition of human KM12 cell growth in a cell viability assay.

[30] = tested on: EW-24; format: functional, cell-based, Homo sapiens; conditions: Homo sapiens, EW-24;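 further: human EW-24 cancer cell line, growth inhibition read out via a cell viability assay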
Description: SANGER: Inhibition of human EW-24 cell growth in a cell viability assay.

[31] = tested on: LC-2-ad; format: functional, cell-based, Homo sapiens; conditions: Homo sapiens, LC-2-ad;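 further: growth inhibition of human LC-2-ad cells, read out with a cell viability assay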
Description: SANGER: Inhibition of human LC-2-ad cell growth in a cell viability assay.

[32] = tested on: NKM-1; format: functional, cell-based, Homo sapiens; conditions: Homo sapiens, NKM-1;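 further: growth inhibition of NKM-1 cells, read out with a cell viability assay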
Description: SANGER: Inhibition of human NKM-1 cell growth in a cell viability assay.

[33] = tested on: HCE-T; format: functional, cell-based, Homo sapiens; conditions: Homo sapiens, HCE-T;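 further: cell viability assay read-out, reporting inhibition of HCE-T cell growth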
Description: SANGER: Inhibition of human HCE-T cell growth in a cell viability assay.

[34] = tested on: A4-Fuk; format: functional, cell-based, Homo sapiens; conditions: Homo sapiens, A4-Fuk;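 further: growth inhibition of A4-Fuk cells, read out by a cell viability assay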
Description: SANGER: Inhibition of human A4-Fuk cell growth in a cell viability assay.

[35] = tested on: CP66-MEL; format: functional, cell-based, Homo sapiens; conditions: Homo sapiens, CP66-MEL;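 further: growth inhibition of CP66-MEL cells determined in a cell viability assay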
Description: SANGER: Inhibition of human CP66-MEL cell growth in a cell viability assay.

[36] = tested on: JVM-3; format: functional, cell-based, Homo sapiens; conditions: Homo sapiens, JVM-3;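 further: growth inhibition of human JVM-3 cells, read out with a cell viability assay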
Description: SANGER: Inhibition of human JVM-3 cell growth in a cell viability assay.

[37] = tested on: ES3; format: functional, cell-based, Homo sapiens; conditions: Homo sapiens, ES3;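 further: growth inhibition of ES3 cells, read out with a cell viability assay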
Description: SANGER: Inhibition of human ES3 cell growth in a cell viability assay.

[38] = tested on: COLO-668; format: functional, cell-based, Homo sapiens; conditions: Homo sapiens, COLO-668
Description: SANGER: Inhibition of human COLO-668 cell growth in a cell viability assay.

[39] = tested on: SK-N-FI; format: functional, cell-based, Homo sapiens; conditions: Homo sapiens, SK-N-FI;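 further: cell viability assay measuring growth inhibition of human SK-N-FI cells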
Description: SANGER: Inhibition of human SK-N-FI cell growth in a cell viability assay.

[40] = tested on: SK-N-DZ; format: functional, cell-based, Homo sapiens; conditions: Homo sapiens, SK-N-DZ;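 further: growth inhibition of the cancer cell line, read out through a viability assay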
Description: SANGER: Inhibition of human SK-N-DZ cell growth in a cell viability assay.

[41] = tested on: A388; format: functional, cell-based, Homo sapiens; conditions: Homo sapiens, A388;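 further: growth inhibition of human A388 cells, read out with a cell viability assay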
Description: SANGER: Inhibition of human A388 cell growth in a cell viability assay.

[42] = tested on: SW 954; format: functional, cell-based, Homo sapiens; conditions: Homo sapiens, SW 954;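 further: growth inhibition of SW954 human cancer cells, read out as cell viability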
Description: SANGER: Inhibition of human SW954 cell growth in a cell viability assay.

[43] = tested on: TE-12; format: functional, cell-based, Homo sapiens; conditions: Homo sapiens, TE-12;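 further: growth inhibition of TE-12 cells, read out by a cell viability assay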
Description: SANGER: Inhibition of human TE-12 cell growth in a cell viability assay.

[44] = tested on: IA-LM; format: functional, cell-based, Homo sapiens; conditions: Homo sapiens, IA-LM;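 further: cell viability assay measuring growth inhibition of human IA-LM cells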
Description: SANGER: Inhibition of human IA-LM cell growth in a cell viability assay.

[45] = tested on: LU-134-A; format: functional, cell-based, Homo sapiens; conditions: Homo sapiens, LU-134-A
Description: SANGER: Inhibition of human LU-134-A cell growth in a cell viability assay.

[46] = tested on: ES8; format: functional, cell-based, Homo sapiens; conditions: Homo sapiens, ES8;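 further: growth inhibition of human ES8 cells, read out with a cell viability assay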
Description: SANGER: Inhibition of human ES8 cell growth in a cell viability assay.

[47] = tested on: SK-MEL-2; format: functional, cell-based, Homo sapiens; conditions: Homo sapiens, SK-MEL-2;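 further: growth inhibition of human SK-MEL-2 cells measured with a cell viability assay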
Description: SANGER: Inhibition of human SK-MEL-2 cell growth in a cell viability assay.

[48] = tested on: ACN; format: functional, cell-based, Homo sapiens; conditions: Homo sapiens, ACN;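 further: growth inhibition of the human ACN cell line, read out via cell viability testing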
Description: SANGER: Inhibition of human ACN cell growth in a cell viability assay.

For `Cc1ccc(-c2c(C(=O)CCl)n(CCCO)c3ncnc(N)c23)cc1`, the IC50 [1] was > 4000 nM, the IC50 [2] was > 4000 nM and the IC50 [3] was > 4000 nM. For the same compound, the IC50 [4] was > 4000 nM, the IC50 [5] was > 4000 nM and the IC50 [6] was > 4000 nM. For the same compound, the IC50 [7] was > 4000 nM, the IC50 [8] was > 4000 nM and the IC50 [9] was > 4000 nM. For the same compound, the IC50 [10] was > 4000 nM, the IC50 [11] was 2930 nM and the IC50 [12] was > 4000 nM. The IC50 [13] was > 4000 nM, the IC50 [14] was > 4000 nM and the IC50 [15] was > 4000 nM. For the same compound, the IC50 [16] was > 4000 nM, the IC50 [17] was > 4000 nM and the IC50 [18] was > 4000 nM. For the same compound, the IC50 [19] was > 4000 nM, the IC50 [20] was > 4000 nM and the IC50 [21] was > 4000 nM. The IC50 [22] was > 4000 nM, the IC50 [23] was > 4000 nM and the IC50 [24] was > 4000 nM. The IC50 [25] was > 4000 nM, the IC50 [26] was > 4000 nM and the IC50 [27] was > 4000 nM. The IC50 [28] was > 4000 nM, the IC50 [29] was > 4000 nM and the IC50 [30] was > 4000 nM. For the same compound, the IC50 [31] was 2740 nM, the IC50 [32] was > 4000 nM and the IC50 [33] was > 4000 nM. For the same compound, the IC50 [34] was > 4000 nM, the IC50 [35] was > 4000 nM and the IC50 [36] was > 4000 nM. The IC50 [37] was > 4000 nM, the IC50 [38] was > 4000 nM and the IC50 [39] was > 4000 nM. The IC50 [40] was > 4000 nM, the IC50 [41] was 2190 nM and the IC50 [42] was > 4000 nM. For the same compound, the IC50 [43] was > 4000 nM, the IC50 [44] was 3210 nM and the IC50 [45] was > 4000 nM. For the same compound, the IC50 [46] was > 4000 nM, the IC50 [47] was > 4000 nM and the IC50 [48] was > 4000 nM.

In the case of `COc1cc2ncn(-c3cc(OCc4ccccc4C(F)(F)F)c(C(N)=O)s3)c2cc1OC` [GW843682X], the IC50 [1] is reported as > 256 nM, the IC50 [2] is reported as 27.5 nM and the IC50 [3] is reported as 84 nM. For the same compound, the IC50 [4] was 41.9 nM, the IC50 [5] was 6.13 nM and the IC50 [6] was > 256 nM. It also gave an IC50 [7] of 123 nM, an IC50 [8] of 88.3 nM and an IC50 [9] of 36.4 nM. The IC50 [10] was 23.7 nM, the IC50 [11] was 14.8 nM and the IC50 [12] was 27.5 nM. The IC50 [13] was > 256 nM, the IC50 [14] was 11 nM and the IC50 [15] was > 256 nM. The IC50 [16] was 66.3 nM, the IC50 [17] was 69.8 nM and the IC50 [18] was > 256 nM. For the same compound, the IC50 [19] was > 256 nM, the IC50 [20] was 76.7 nM and the IC50 [21] was > 256 nM. The IC50 [22] was 28.8 nM, the IC50 [23] was 242 nM and the IC50 [24] was > 256 nM. The IC50 [25] was > 256 nM, the IC50 [26] was > 256 nM and the IC50 [27] was 14.3 nM. The IC50 [28] was 57.3 nM, the IC50 [29] was 16.5 nM and the IC50 [30] was > 256 nM. The IC50 [31] was 15.6 nM, the IC50 [32] was 138 nM and the IC50 [33] was 217 nM. The IC50 [34] was 20.8 nM, the IC50 [35] was 162 nM and the IC50 [36] was > 256 nM. The IC50 [37] was > 256 nM, the IC50 [38] was > 256 nM and the IC50 [39] was 232 nM. For the same compound, the IC50 [40] was 37.4 nM, the IC50 [41] was 15.2 nM and the IC50 [42] was 18.1 nM. For the same compound, the IC50 [43] was 27.3 nM, the IC50 [44] was 11.2 nM and the IC50 [45] was 119 nM. The IC50 [46] was 10.5 nM, the IC50 [47] was > 256 nM and the IC50 [48] was 33.3 nM.

From ChEMBL document CHEMBL1201861, “Genomics of Drug Sensitity in Cancer screening data, Wellcome Trust Sanger Institute”
